Common to all, as to format: cell-based
The target in series [1] is T1, Vitamin D3 receptor (Homo sapiens) (UniProt P11473).
T1 sequence (whole entry): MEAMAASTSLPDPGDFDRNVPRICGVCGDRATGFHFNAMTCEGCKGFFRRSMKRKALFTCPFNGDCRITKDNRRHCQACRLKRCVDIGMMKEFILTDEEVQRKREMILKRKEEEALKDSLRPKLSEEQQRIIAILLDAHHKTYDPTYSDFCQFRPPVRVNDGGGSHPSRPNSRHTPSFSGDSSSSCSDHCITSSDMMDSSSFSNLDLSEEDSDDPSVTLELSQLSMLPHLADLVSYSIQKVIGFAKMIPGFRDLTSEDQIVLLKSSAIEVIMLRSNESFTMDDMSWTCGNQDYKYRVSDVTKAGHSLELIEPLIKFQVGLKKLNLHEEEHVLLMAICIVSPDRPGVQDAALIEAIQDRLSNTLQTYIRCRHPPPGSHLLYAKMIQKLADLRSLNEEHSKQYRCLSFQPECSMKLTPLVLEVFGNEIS
The series is described as follows: Inhibition of human recombinant GAL4N-fused VDR LBD expressed in HEK293 cells using 1,25(OH)2D3 as substrate assessed as inhibition of cofactor interaction at 30 uM after 16 to 18 hrs by luciferase reporter gene assay relative to control. (A reporter such as luciferase makes a cellular process visible.)

In series [2] the target is T2, Vitamin D3 receptor (Homo sapiens, UniProt P11473).
T2 sequence (P11473 whole entry): T1 sequence (whole entry)
The series can be described thus: Inhibition of human recombinant GAL4N-fused VDR LBD expressed in HEK293 cells using 1,25(OH)2D3 as substrate assessed as inhibition of cofactor interaction after 16 to 18 hrs by luciferase reporter gene assay.

Series [3] concerns HEK293. The series is described as follows: Cytotoxicity to human HEK293 cells at 30 uM after 16 to 18 hrs. The settings on record: hek293, 30 µM.

SMILES strings stand for the structures. Calls of active or inactive are those of the source. The calls are words filed in the database; no cut-off is given here.

As usually defined, the inhibition is how much of the control response was suppressed. `CC(C)CCN1Cc2cc(CCCCO)ccc2N[C@@H](CC(C)C)C1=O`: the inhibition result in series [1] is “inactive”.

In general, IC50 refers to the concentration that inhibits the measured activity by half. As to `CC(C)CCN1Cc2cc(I)c(N)cc2N[C@@H](CC(C)C)C1=O`, in series [2], the IC50 is 30 µM.

Turning to `CC(C)CCN1Cc2cc(CCCO)ccc2N[C@@H](CC(C)C)C1=O`, in series [1], the inhibition turned out to be 9%. In series [2], the IC50 was over 30 µM.

Regarding `CC/C=C/c1ccc2c(c1)CN(CCC(C)C)C(=O)[C@H](CC(C)C)N2`, in series [1], the inhibition entry was “inactive”.

Take `CCCCc1cc2c(cc1N)N[C@@H](CC(C)C)C(=O)N(CCC(C)C)C2`: in series [2], the half-maximal inhibitory concentration (IC50) is 25 µM.

`CC(C)CCN1Cc2ccccc2N[C@@H](CC(C)C)C1=O`: the inhibition in series [1] amounted to 29%. Further, the IC50 in series [2] was over 30 µM.

As for `CCOC(=O)c1ccc(-c2cc3c(cc2N)N[C@@H](CC(C)C)C(=O)N(CCC(C)C)C3)c(OCCO)c1`, the concentration for half-maximal inhibition (IC50) in series [2] stood at 20 µM.

With `CC(C)CCN1Cc2cc(-c3ccc(C(=O)O)cc3)c(N)cc2N[C@@H](CC(C)C)C1=O`, the inhibition in series [1] is 8%. In addition, the concentration for half-maximal inhibition (IC50) in series [2] is over 30 µM.

Turning to `CC(C)CCN1Cc2cc(I)ccc2N[C@@H](CC(C)C)C1=O`, in series [1], the inhibition stood at 30%. Also, the IC50 in series [2] is over 30 µM.

`CC/C=C/c1cc2c(cc1N)N[C@@H](CC(C)C)C(=O)N(CCC(C)C)C2`: the inhibition in series [1] amounted to 48%. Further, in series [2], the IC50 is over 30 µM.

`CCOC(=O)c1ccc(-c2cc3c(cc2N)N[C@@H](CC(C)C)C(=O)N(CCC(C)C)C3)cc1`: the IC50 in series [2] is 14 µM.

Turning to `CC(C)CCN1Cc2cc(/C=C/CCO)ccc2N[C@@H](CC(C)C)C1=O`, the inhibition in series [1] was 28%. For the same molecule, the concentration for half-maximal inhibition (IC50) in series [2] was over 30 µM.

On to `CC(C)CCN1Cc2cc(/C=C/CO)ccc2N[C@@H](CC(C)C)C1=O`, for which the inhibition in series [1] amounted to 27%. The IC50 in series [2] was over 30 µM.

With `CC(C)CCN1Cc2ccc(N)cc2N[C@@H](CC(C)C)C1=O`, in series [1], the inhibition worked out at 7%. In series [2], the half-inhibitory concentration (IC50) is over 30 µM.

As to `CC(C)CCN1Cc2cc(CC(C)C)ccc2N[C@@H](CC(C)C)C1=O`, the inhibition in series [1] was found to be 45%. In series [2], the half-inhibitory concentration (IC50) is over 30 µM.

As for `C=C(CC)c1ccc2c(c1)CN(CCC(C)C)C(=O)[C@H](CC(C)C)N2`, the inhibition in series [1] came out at 32%. Moreover, in series [2], the IC50 is over 30 µM.

`CC(C)=Cc1cc2c(cc1N)N[C@@H](CC(C)C)C(=O)N(CCC(C)C)C2`: the IC50 in series [2] was 26 µM.

Regarding `CCC/C=C/c1cc2c(cc1N)N[C@@H](CC(C)C)C(=O)N(CCC(C)C)C2`, the Activity result in series [3] is on record as “Toxic”.

As for `CC(C)CCN1Cc2cc(-c3ccccc3)c(N)cc2N[C@@H](CC(C)C)C1=O`, in series [2], the IC50 was 24 µM.

Regarding `CC(C)=Cc1ccc2c(c1)CN(CCC(C)C)C(=O)[C@H](CC(C)C)N2`, the inhibition entry in series [1] was “inactive”.

As for `CCCCCc1cc2c(cc1N)N[C@@H](CC(C)C)C(=O)N(CCC(C)C)C2`, the inhibition in series [1] came to 47%. The IC50 in series [2] was over 30 µM.

The record behind these values is ChEMBL document CHEMBL2321706, “Structure-activity relationship of benzodiazepine derivatives as LXXLL peptide mimetics that inhibit the interaction of vitamin D receptor with coactivators” (Bioorg Med Chem, 2013).
